In article PMC6214630 (Biochimica et biophysica acta. General subjects, 2018):

Molecular target: THB2 (Chlamydomonas reinhardtii, UniProt R9RZJ6)
Test: UV-visible absorption
Type: binding
Details: Fe(III) heme

| SMILES | UV-visible absorption | UV-visible absorption (excess imidazole) |
| --- | --- | --- |
| CC(=O)O [acetate] | this protein, like THB1 and a small number of TrHbs |  |
| c1c[nH]cn1 [imidazole] |  | addition of excess imidazole to our preparations of THB2 nearly eliminates the discrepancies |
